This note sets out measurements from patent publication US20260035360A1, “INHIBITORS OF MYC AND USES THEREOF” (Northwestern University, priority 2022, published 2026).

The structures appear in SMILES notation.

Series [1] in a line: Plasma pharmacokinetics after 1 mg/kg PO in female mice. The settings on record: mouse.
Experimental: (§3) PK: Plasma levels of compounds were determined after 1 mg/kg dosing PO in female BALB/C mice.
(§4) Plasma levels of compounds were determined after 1 mg/kg dosing PO in female BALB/C mice.
Series [2] can be described thus: Toxicity (weight loss) in tumor-bearing mice. Format: in vivo. The following applies: weight loss class. On the procedure: (§1) Table 3. Biological data of selected compounds. […] Tumor growth inhibition (TGI) was determined after 14 d.
In the next series the test system is PC3 cells. The experiment in a line: PC3 cell viability, CellTitreGlo Assay, 72 hrs. The series is classed as cell-based. The following applies: Homo sapiens, PC-3. The procedure, abridged: (§2)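 For viability IC50, PC3 and PC12 cells were exposed to a compound concentration range for 72 hrs and read by CellTitreGlo. MYC and ATF4 were measured in PC3 cells after 24 hr treatment by western blot, normalised to Actin and quantified by imager.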

The next series relates to PC12 cells. Kind of series: PC12 cell viability, CellTitreGlo Assay, 72 hrs. The series is classed as cell-based. The following applies: Rattus norvegicus, PC-12. Here is the method:
Table 2. Biological data of selected compounds. For IC50 determination. PC3 and PC12 cells were treated with increasing concentrations of the indicated compounds for 72 hrs and cell viability assessed using CellTitreGlo Assay (Promega). For MYC and ATF4 protein level determination. PC3 cells were treated with the indicated compounds for 24 hr sand cell lysates processed for western blot with MYC and ATF4 antibodies using Actin as a control. Quantification analyses were performed by Biorad ChemiDoc Imager and Bio-Rad Image Lab software.

A further series addresses T1, MYC (Homo sapiens, UniProt P01106).
T1 construct: endogenous in cells; host or cells: PC3 cells
Kind of series: MYC protein level in PC3 cells by western blot, 24 hr. Format: cell-based. The settings on record: PC-3, 24 h, PC3, 24 h, Actin control, read-out: Relative MYC protein at 10 μM (%, PC3 24 h). The procedure, abridged: as §2
(In general: Immunoblotting shows a protein as a band on a membrane.)

For series [3] the following is noted: female, mouse, in vivo, po, 1 mg/kg.
Experimental: as §3, §4
Another series has as its system ATF4. The experiment in a line: ATF4 protein level in PC3 cells by western blot, 24 hr. The series is classed as cell-based. The settings on record: Homo sapiens, PC-3, PC3, 24 h, Actin control, read-out: Relative ATF4 protein at 10 μM (fold change, PC3 24 h). The procedure, abridged: as §2
For another series, the system named is MycCaP;Pten-KO cells. The experiment in a line: Tumor growth inhibition, MycCaP;Pten-KO subcutaneous allograft in male FVB/N mice. Format: in vivo. The settings on record: after 14 d; for TGI: QD, Table 7. Here is the method: as §1
Table 7. Tumor Growth Inhibition data. […] Tumor growth inhibition (TOD was determined after 14 d.

T1 sequence (P01106 whole entry): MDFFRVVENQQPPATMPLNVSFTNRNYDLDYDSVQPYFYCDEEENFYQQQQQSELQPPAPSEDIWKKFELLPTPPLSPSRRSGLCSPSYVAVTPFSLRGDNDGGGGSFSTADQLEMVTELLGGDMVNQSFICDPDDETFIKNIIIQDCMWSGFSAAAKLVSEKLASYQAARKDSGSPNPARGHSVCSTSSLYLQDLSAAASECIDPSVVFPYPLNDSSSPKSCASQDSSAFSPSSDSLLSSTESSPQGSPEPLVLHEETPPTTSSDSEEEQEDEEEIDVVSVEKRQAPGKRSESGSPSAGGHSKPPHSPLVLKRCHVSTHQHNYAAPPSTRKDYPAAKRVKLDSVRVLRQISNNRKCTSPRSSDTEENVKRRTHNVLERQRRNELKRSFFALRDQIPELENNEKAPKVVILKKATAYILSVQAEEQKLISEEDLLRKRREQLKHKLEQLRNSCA

The AUC(0-t) is the area under the concentration-time curve up to a stated or last time point. The low end stands for low exposure, the high end for high exposure. In general, Cmax refers to the maximum level reached in the sampled fluid or tissue. The term Tmax denotes the time at which the peak concentration occurs. For orientation: IC50 means the concentration needed to halve the response being measured. High values mean lower potency, low ones higher potency. By TGI is commonly meant how far tumour growth fell short of that in controls. `Cn1nc(C(F)(F)F)cc1-c1cc(Cl)c(COc2ccc(Cl)cc2)c(-c2ccc(Cl)c(C(F)(F)F)c2)c1O` [NUCC-0226605] yielded an area under the curve AUC(0-t) in series [1] of 4830 ng·h/mL. For the same compound, the Cmax in series [1] worked out at 274 ng/mL. In addition, the Tmax in series [1] came to 8 h. Also, in series [2], the “Toxicity @ 100 mg/kg/d” value is “++ (++, 15-20% weight loss)”. Besides, the IC50 in the series with PC3 cells came to 1 µM; in the series on PC12 cells it was 10.5 µM. The remaining activity at 10 µM on MYC was found to be 34.7 ± 3.2%. In series [3], this compound came in with an AUMC0-t of 49995 h*h*ng/mL. In the series with ATF4, the fold induction at 10 µM was determined as 10.3 ± 1.5. Moreover, the tumour growth inhibition (TGI) in the series with MycCaP;Pten-KO cells (10 mg/kg p.o.) amounted to 56.29%; with MycCaP;Pten-KO cells (30 mg/kg p.o.), 65.67%; in the series with MycCaP;Pten-KO cells (100 mg/kg p.o.), 92.51%. For the same compound, the “Efficacy MycCaP;Pten-ko (TGI @ 100 mg/kg/d po)” value in the series with MycCaP;Pten-KO cells (100 mg/kg/d po, male FVB/N mice, Table 3) worked out at 90.
